Reference: publication PMC9090738, “An anti-diabetic drug targets NEET (CISD) proteins through destabilization of their [2Fe-2S] clusters” (Communications Biology, 2022)

Experiments:
mNT (mitoNEET) = target: T1, mNT (mitoNEET) (Homo sapiens, UniProt Q9NZ45); assay: isothermal titration calorimetry, one-site model; type: binding
T1 construct: gene CISD1; soluble cytosolic part, residues 33-108; pET-28a+, E. coli BL21-RIL, Ni-agarose and size exclusion; [2Fe-2S] holo form; homodimer
T1 sequence (Q9NZ45 33-108): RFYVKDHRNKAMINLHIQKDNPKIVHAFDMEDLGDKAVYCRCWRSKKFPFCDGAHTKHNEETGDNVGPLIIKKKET

NAF-1 = target: T2, NAF-1 (Homo sapiens, UniProt Q8N5K1); assay: isothermal titration calorimetry, one-site model; type: binding
T2 construct: gene CISD2; soluble cytosolic part, residues 57-135; pET-28a+, E. coli BL21-RIL, Ni-agarose and size exclusion; [2Fe-2S] holo form; homodimer
T2 sequence (Q8N5K1 57-135): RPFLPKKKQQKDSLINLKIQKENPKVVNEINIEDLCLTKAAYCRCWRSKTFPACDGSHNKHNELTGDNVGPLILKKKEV

[1] = target: the molecule itself; assay: crystal structure; co-crystallised with the small molecule M1 (3.3 mM, 5% DMSO), sitting drop, 32% PEG-3000, 100 mM Tris-HCl pH 8.0, 100 mM NaCl, 20 °C; two molecules (mNT) or two dimers (NAF-1) in the asymmetric unit

Molecule | Kd (mNT (mitoNEET)) | Kd (NAF-1) | binding result [1]
O=C(Nc1scc(C2CCc3ccccc3C2)c1C(=O)O)c1ccccc1 (racemic) [M1] | 5.93 ± 0.53 µM | 7.2 ± 0.99 µM | –
NAF-1 soluble part (residue 57-135) (domain or fragment, human, UniProt Q8N5K1 57-135, looked up, NAF-1, human NEET protein encoded by CISD2, soluble part, residues 57-135; Each monomer carries a [2Fe-2S] cluster; Crystallised with the small molecule M1; source: Escherichia coli BL21-RIL, purified (Ni-agarose, size exclusion chromatography)) RPFLPKKKQQKDSLINLKIQKENPKVVNEINIEDLCLTKAAYCRCWRSKTFPACDGSHNKHNELTGDNVGPLILKKKEV | – | – | binds
mitoNEET soluble part (residue 33-108) (domain or fragment, human, UniProt Q9NZ45 33-108, looked up, mitoNEET (mNT), human NEET protein, soluble part, residues 33-108; Each monomer carries a [2Fe-2S] cluster; Crystallised with the small molecule M1; also called mNT; source: Escherichia coli BL21-RIL, purified (Ni-agarose, size exclusion chromatography)) RFYVKDHRNKAMINLHIQKDNPKIVHAFDMEDLGDKAVYCRCWRSKKFPFCDGAHTKHNEETGDNVGPLIIKKKET | – | – | binds
